Assay results as given in patent publication US20250276968A1, “8- AND 6-SUBSTITUTED PYRIDOPYRIMIDINE DERIVATIVES AS KRAS INHIBITORS” (Beta Pharma, Inc., priority 2022, published 2025).

Test: Pharmacokinetics in male CD-1 mice (IV and PO dosing)
Type: in vivo
Conditions: mean plasma
Method: The pharmacokinetic profile of the Example 1 (compound 1a) was determined in male CD-1 mice by WuXi AppTec Co., Ltd., 1318 Wuzhong Avenue, Wuzhong District, Suzhou, China, 215104.

AUCExtra (3 mg/kg IV): 9.23%
AUMCExtra (3 mg/kg IV): 35.2%
Tlast (3 mg/kg IV): 8.00 h
AUCExtra (30 mg/kg PO): 17.1%
AUMCExtra (30 mg/kg PO): 43.8%
Tlast (30 mg/kg PO): 8.00 h
Structure (SMILES): C=C(F)C(=O)N1CCN(c2nc(OC[C@@H]3CCCN3C)nc3cc(-c4cccc5cccc(Cl)c45)cnc23)C[C@@H]1CC#N [Example 1, 2-((S)-4-(7-(8-Chloronaphthalen-1-yl)-2-(((S)-1-methylpyrrolidin-2-yl)methoxy)pyrido[3,2-d]pyrimidin-4-yl)-1-(2-fluoroacryloyl)piperazin-2-yl)acetonitrile]
